{"source": "patent US20030206968A1", "about": "“Fungicidal mixtures” (priority 1999, published 2003)", "format_in_all_cases": "in vivo", "key": {"Septoria tritici": {"test_system": "Septoria tritici", "assay": "Greenhouse, Septoria tritici on wheat, 1 day residual", "conditions": "Example 9", "procedure": "(§1) The trials are carried out under greenhouse (Examples 1 to 32) or field conditions (Examples 33 to 40) in residual or curative applications. The fungicides are applied in single treatments, or in a combination comprising an azolopyrimidine of formula I and a compound selected from the classes (A), (B) and (C) as defined above. The compounds are applied in form of an aqueous spray mix obtained from a concentrated formulation or the technical material.\n(§2) 1. Seed is planted in 6 cm diameter plastic pots and maintained in the greenhouse.\n(§3) 2. When the primary leaf is fully expanded in the case of cereals or several leaves are present in the case of dicots, formulated test compounds are sprayed with a three nozzle overhead fungicide sprayer to near run-off. Alternatively, a single nozzle overhead track sprayer is used for application of the compounds to cereals at a rate of 200 l/ha. Plants are then allowed to air-dry.\n(§4) 3. Inoculation precedes treatment in the case of curative evaluations and follows treatment in case of residual evaluations. For inoculation of powdery mildew disease, plants are set up on greenhouse benches with bottom watering mats and inoculated by dusting them with conidia from infected plants. Between inoculation and treatment for curative evaluations and between treatment and inoculation for residual evaluations, plants are maintained in the greenhouse with bottom watering.\n(§5) For inoculation of non-powdery mildew diseases, an aqueous spore suspension of the pathogen is applied to the plant and the plants are kept 1-2 days in a moist infection chamber before being returned to the greenhouse where they are maintained by bottom watering.\n(§6) 4. Disease on the foliage as percent leaf area with disease symptoms/signs is evaluated about 7 days after inoculation. In the case of wheat, the tips and bases of the leaves are excluded from the evaluation. [formula]\n(§7) 1. Technical compounds are formulated in a solvent/surfactant system consisting of 5% acetone and 0.05% Tween 20 in deionized water. Compounds are dissolved in acetone prior to addition of the water; the Tween 20 can be added through either the acetone or the water. Dilutions are made using the solvent/surfactant system. Formulated compounds are prepared using deionized water.\n(§8) 2. Two kinds of controls are included: Plants treated with the solvent/surfactant solution and inoculated (Solvent Blank). Untreated plants which are inoculated (Inoculated Control).\n(§9) Assessments of the diseases took place at the indicated day after the application of the compounds. Per cent infected leaf area infected was evaluated. The efficacy of the compounds/compounds mixtures to control the diseases was calculated by using the formula given above under item 4: […]\n(§10) Synergy was calculated using the % disease control values of specific treatments for the two COLBY formula given hereinabove\nFungicidal efficacy of the mixture of Azolopyrimidine C+metconazole (1 day residual) against Septoria tritici on wheat The tank mix was obtained from a SC formulation containing 100 g Azoplopyrimidine C per liter and an EC containing 100 g metconazole per liter."}, "Pyrenophora teres": {"test_system": "Pyrenophora teres", "assay": "Greenhouse, Pyrenophora teres on barley, 1 day residual", "conditions": "Example 10", "procedure": "as §1, §2, §3, §4, §5, §6, §7, §8, §9, §10\nFungicidal efficacy of the mixture of Azolopyrimidine C+metconazole (1 day residual) against Pyrenophora teres on barley The tank mix was obtained from a SC formulation containing 100 g Azolopyrimidine C per liter and an EC containing 100 g metconazole per liter."}, "Alternaria solani": {"test_system": "Alternaria solani", "assay": "Greenhouse, Alternaria solani on tomatoes, 1 day residual", "conditions": "Example 25; rate 4 g/ha", "procedure": "as §1, §2, §3, §4, §5, §6, §7, §8, §9, §10\nFungicidal efficacy of the mixture of Azolopyrimidine C and different fungicides (1 day residual) against Alternaria solani on tomatoes The tank mix was obtained from an SC formulation containing 100 g Azolopyrimidine A per liter and WP formulations of dithianon (750 g/kg), captan (500 g/kg), cyprodinil (750 g/kg), mancozeb (800 g/kg), or a SC formulation of chlorothalonil (500 g/l), or a FS formulation of fenpiclonil (400 g/l), spectively."}, "Puccinia recondita": {"test_system": "Puccinia recondita", "assay": "Greenhouse, Puccinia recondita on wheat, 1 day curative, plants sprayed twice, once with each compound", "conditions": "Example 12", "procedure": "as §1, §2, §3, §4, §5, §6, §7, §8, §9, §10\nFungicidal efficacy of the mixture of Azolopyrimidine C+kresoxim methyl (1 day curative) against Puccinia recondita on wheat Plants sprayed twice, once with each compound. The tank mixes were obtained from a SC formulation containing 100 g Azolopyrimidine C per liter and a WG containing 500 g kresoxim methyl per kg."}, "Blumeria graminis": {"test_system": "Blumeria graminis", "assay": "Greenhouse, Blumeria graminis on barley, 2 days curative", "procedure": "as §1, §2, §3, §4, §6, §7, §8, §9, §10\nFungicidal efficacy of the mixture of (S)-Azolopyrimidine C in admixture with Fenhexamid (2 days curative) against Blumeria graminis on barley. The tank mixes were obtained from technical material of (S)-Azolopyrimidine C and Fenhexamid.\nFungicidal efficacy of the mixture of (S)-Azolopyrimidine C in admixture with Azoxystrobin or Trifloxystrobin (2 days curative) against Blumeria graminis on barley. The tank mixes were obtained from technical material of (S)-Azolopyrimidine C and Azoxystrobin or Trifloxystrobin."}}}
{"compound": "CC(Nc1c(-c2c(F)cc(F)cc2F)c(Cl)nc2ncnn12)C(F)(F)F", "note": "(stereo not shown) [Azolopyrimidine C, 5-chloro-6-(2,4,6-trifluorophenyl)-7-(1,1,1-trifluoroprop-2-ylamino)-[1,2,4]triazolo[1,5-a]pyrimidine]", "values": [{"measurement": "Observed Efficacy", "setting": "Septoria tritici; dose rate 2 ppm", "value": 0, "unit": "%"}, {"measurement": "Observed Efficacy", "setting": "Septoria tritici; dose rate 5 ppm", "value": 0, "unit": "%"}, {"measurement": "Observed Efficacy", "setting": "Septoria tritici; dose rate 8 ppm", "value": 0, "unit": "%"}, {"measurement": "Observed Efficacy", "setting": "Septoria tritici; dose rate 25 ppm", "value": 68, "unit": "%"}, {"measurement": "Observed Efficacy", "setting": "Septoria tritici; dose rate 40 ppm", "value": 91, "unit": "%"}, {"measurement": "Observed Efficacy", "setting": "Pyrenophora teres; dose rate 10 ppm", "value": 0, "unit": "%"}, {"measurement": "Observed Efficacy", "setting": "Pyrenophora teres; dose rate 25 ppm", "value": 0, "unit": "%"}, {"measurement": "Observed Efficacy", "setting": "Pyrenophora teres; dose rate 40 ppm", "value": 0, "unit": "%"}, {"measurement": "Observed Efficacy", "setting": "Pyrenophora teres; dose rate 50 ppm", "value": 0, "unit": "%"}, {"measurement": "Observed Efficacy", "setting": "Pyrenophora teres; dose rate 125 ppm", "value": 0, "unit": "%"}, {"measurement": "Observed Efficacy", "setting": "Alternaria solani", "value": 25, "unit": "%"}]}
{"compound": "5-chloro-6-(2,4,6-trifluorophenyl)-7-(1,1,1-trifluoroprop-2-ylamino)-[1,2,4]triazolo[1,5-a]pyrimidine [(S)-Azolopyrimidine C]", "values": [{"measurement": "Observed Efficacy", "setting": "Puccinia recondita; dose rate 25 g/ha", "value": 25, "unit": "%"}, {"measurement": "Observed Efficacy", "setting": "Puccinia recondita; dose rate 50 g/ha", "value": 66, "unit": "%"}, {"measurement": "Observed Efficacy", "setting": "Puccinia recondita; dose rate 100 g/ha", "value": 79, "unit": "%"}, {"measurement": "Observed Efficacy", "setting": "Puccinia recondita; dose rate 200 g/ha", "value": 97, "unit": "%"}, {"measurement": "Observed Efficacy", "setting": "Puccinia recondita; dose rate 400 g/ha", "value": 99, "unit": "%"}, {"measurement": "Observed Efficacy", "setting": "Blumeria graminis; Example 26, dose rate 0.74 ppm", "value": 0, "unit": "%"}, {"measurement": "Observed Efficacy", "setting": "Blumeria graminis; Example 26, dose rate 2.2 ppm", "value": 8, "unit": "%"}, {"measurement": "Observed Efficacy", "setting": "Blumeria graminis; Example 26, dose rate 6.7 ppm", "value": 29, "unit": "%"}, {"measurement": "Observed Efficacy", "setting": "Blumeria graminis; Example 26, dose rate 20 ppm", "value": 37, "unit": "%"}, {"measurement": "Observed Efficacy", "setting": "Blumeria graminis; Example 26, dose rate 60 ppm", "value": 60, "unit": "%"}, {"measurement": "Observed Efficacy", "setting": "Blumeria graminis; Example 26, dose rate 180 ppm", "value": 86, "unit": "%"}, {"measurement": "Observed Efficacy", "setting": "Blumeria graminis; Example 29, dose rate 1.6 ppm", "value": 0, "unit": "%"}, {"measurement": "Observed Efficacy", "setting": "Blumeria graminis; Example 29, dose rate 3.1 ppm", "value": 1, "unit": "%"}, {"measurement": "Observed Efficacy", "setting": "Blumeria graminis; Example 29, dose rate 6.3 ppm", "value": 15, "unit": "%"}, {"measurement": "Observed Efficacy", "setting": "Blumeria graminis; Example 29, dose rate 12.5 ppm", "value": 31, "unit": "%"}, {"measurement": "Observed Efficacy", "setting": "Blumeria graminis; Example 29, dose rate 25 ppm", "value": 54, "unit": "%"}, {"measurement": "Observed Efficacy", "setting": "Blumeria graminis; Example 29, dose rate 50 ppm", "value": 73, "unit": "%"}]}
